From patent publication US10059694B2, “2-aminopyrimidine compound and pharmaceutical composition and use thereof” (Shanghai Institute of Materia Medica, Chinese Academy of …, priority 2014, dated 2018)

Experiments:
EGFR^T790M/L858R = target: T1, EGFR^T790M/L858R (Homo sapiens, UniProt P00533, L858R/T790M); assay: kinase inhibitory activity test (ELISA), EGFR^T790M/L858R; format: biochemical; details: for IC50: ELISA, ATP 5 μM, 1 hour at 37° C.; for kinase inhibitory activity (in words): summary of Table 1
T1 construct: purchased Millipore
Method in brief: (§1)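 ELISA on poly(Glu,Tyr)4:1-coated plates; kinase reaction with 5 μM ATP (final) in 50 mM HEPES pH 7.4, 50 mM MgCl2, 5 mM MnCl2, 0.2 mM Na3VO4, 1 mM DTT, 1 h at 37° C. Phosphotyrosine detected via PY99/HRP and OPD at 490 nm; IC50 by four-parameter fit.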

EGFR^wt = target: T2, EGFR^wt (Homo sapiens, UniProt P00533); assay: kinase inhibitory activity test (ELISA), EGFR^WT; format: biochemical; details: ATP 5 μM, 1 hour at 37° C.
T2 construct: purchased Millipore
Method in brief: as §1

[1] = test system: human non-small cell lung cancer NCI-H1975 cell line; assay: SRB proliferation assay, NCI-H1975 cells; format: cell-based; details: NCI-H1975, SRB, 72 h, read-out: IC50 NCI-H1975
Method in brief: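 NCI-H1975 cells in log phase were allowed to adhere for 24 h, then treated with compound in triplicate for 72 h. Cells were TCA-fixed and SRB-stained, with OD read at 515 nm; IC50 derived from growth inhibition versus DMSO control.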

IGF-1R = target: T3, IGF-1R (Homo sapiens, UniProt P08069); assay: kinase inhibitory activity test (ELISA), IGF-1R; format: biochemical; details: ATP 5 μM, 1 hour at 37° C.
T3 construct: purchased Millipore
Method in brief: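 Poly(Glu,Tyr)4:1-coated plates; kinase reacted 1 h at 37 °C with 5 μM ATP (final) in HEPES pH 7.4 buffer with Mg2+/Mn2+. Phosphotyrosine detected by PY99 and HRP anti-mouse IgG with OPD at 490 nm; IC50 from four-parameter fit.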

[2] = test system: human epidermal carcinoma A431 cell line; assay: SRB proliferation assay, A431 cells; format: cell-based; details: A-431, SRB, 72 h, read-out: IC50 A431
Method in brief: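 A431 cells in log phase are allowed to adhere for 24 h, then exposed to compound for 72 h in triplicate alongside DMSO controls. Cells are fixed with cold 10% TCA, stained with SRB, dye is solubilised in 10 mM Tris pH 10.5, and OD is read at 515 nm.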

T2 sequence (P00533 25-1210): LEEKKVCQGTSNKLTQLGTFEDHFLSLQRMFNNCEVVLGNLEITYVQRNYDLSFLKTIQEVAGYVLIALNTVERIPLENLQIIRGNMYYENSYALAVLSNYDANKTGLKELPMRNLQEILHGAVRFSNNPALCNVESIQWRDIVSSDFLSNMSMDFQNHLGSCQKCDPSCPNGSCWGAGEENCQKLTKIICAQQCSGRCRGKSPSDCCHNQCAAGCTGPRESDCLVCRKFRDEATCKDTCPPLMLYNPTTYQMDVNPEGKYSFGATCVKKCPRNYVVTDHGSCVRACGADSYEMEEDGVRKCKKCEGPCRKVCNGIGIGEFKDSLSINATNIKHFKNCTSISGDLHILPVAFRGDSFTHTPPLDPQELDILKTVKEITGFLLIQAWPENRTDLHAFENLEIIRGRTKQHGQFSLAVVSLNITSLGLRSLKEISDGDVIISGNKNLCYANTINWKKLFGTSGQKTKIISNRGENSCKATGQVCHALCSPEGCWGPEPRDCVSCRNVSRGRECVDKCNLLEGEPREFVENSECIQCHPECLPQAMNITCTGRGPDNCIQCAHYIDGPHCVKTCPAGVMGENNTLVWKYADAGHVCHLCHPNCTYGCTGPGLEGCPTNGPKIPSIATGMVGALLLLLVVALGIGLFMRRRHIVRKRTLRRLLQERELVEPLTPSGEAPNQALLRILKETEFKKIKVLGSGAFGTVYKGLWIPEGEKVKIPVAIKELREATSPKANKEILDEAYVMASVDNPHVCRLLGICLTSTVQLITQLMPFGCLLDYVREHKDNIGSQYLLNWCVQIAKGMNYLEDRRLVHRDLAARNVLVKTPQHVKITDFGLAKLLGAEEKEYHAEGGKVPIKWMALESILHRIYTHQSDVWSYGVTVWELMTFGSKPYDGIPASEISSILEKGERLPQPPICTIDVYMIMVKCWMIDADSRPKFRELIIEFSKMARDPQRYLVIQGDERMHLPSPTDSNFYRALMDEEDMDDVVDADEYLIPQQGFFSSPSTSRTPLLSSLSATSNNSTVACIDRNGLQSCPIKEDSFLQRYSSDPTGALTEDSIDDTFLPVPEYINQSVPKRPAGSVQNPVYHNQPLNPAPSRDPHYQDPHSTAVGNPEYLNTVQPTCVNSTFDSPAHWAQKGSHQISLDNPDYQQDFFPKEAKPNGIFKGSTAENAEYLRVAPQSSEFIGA
T1 sequence (P00533 25-1210 T790M/L858R): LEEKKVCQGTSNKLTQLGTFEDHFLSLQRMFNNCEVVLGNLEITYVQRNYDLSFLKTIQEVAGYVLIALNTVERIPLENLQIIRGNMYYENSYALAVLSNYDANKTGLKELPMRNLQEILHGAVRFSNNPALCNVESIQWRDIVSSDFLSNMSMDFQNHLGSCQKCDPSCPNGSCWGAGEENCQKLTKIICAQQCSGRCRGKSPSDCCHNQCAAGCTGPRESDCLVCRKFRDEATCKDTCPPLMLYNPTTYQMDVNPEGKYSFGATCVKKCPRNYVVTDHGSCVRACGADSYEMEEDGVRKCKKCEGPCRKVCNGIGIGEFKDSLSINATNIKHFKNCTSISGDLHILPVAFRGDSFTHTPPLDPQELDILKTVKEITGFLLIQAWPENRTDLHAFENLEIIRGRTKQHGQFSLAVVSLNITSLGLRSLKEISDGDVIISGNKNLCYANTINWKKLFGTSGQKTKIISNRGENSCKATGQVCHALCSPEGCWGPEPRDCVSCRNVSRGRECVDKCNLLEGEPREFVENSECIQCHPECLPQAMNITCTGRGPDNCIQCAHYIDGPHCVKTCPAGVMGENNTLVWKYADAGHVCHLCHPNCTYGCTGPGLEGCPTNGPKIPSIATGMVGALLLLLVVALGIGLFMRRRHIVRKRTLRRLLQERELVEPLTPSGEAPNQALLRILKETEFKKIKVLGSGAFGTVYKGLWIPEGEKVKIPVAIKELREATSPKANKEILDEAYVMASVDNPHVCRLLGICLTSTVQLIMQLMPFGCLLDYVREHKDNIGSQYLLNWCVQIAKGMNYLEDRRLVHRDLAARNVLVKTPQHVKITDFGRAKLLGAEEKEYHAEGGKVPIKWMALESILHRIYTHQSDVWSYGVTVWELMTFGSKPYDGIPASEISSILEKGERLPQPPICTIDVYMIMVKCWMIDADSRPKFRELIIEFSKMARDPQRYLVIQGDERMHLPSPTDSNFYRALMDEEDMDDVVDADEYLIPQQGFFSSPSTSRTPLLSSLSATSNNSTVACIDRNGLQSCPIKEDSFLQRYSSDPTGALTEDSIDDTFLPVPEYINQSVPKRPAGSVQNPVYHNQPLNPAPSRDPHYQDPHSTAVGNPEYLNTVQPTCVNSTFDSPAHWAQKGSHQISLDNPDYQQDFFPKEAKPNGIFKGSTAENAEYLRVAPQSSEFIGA
T3 sequence (P08069 31-1367): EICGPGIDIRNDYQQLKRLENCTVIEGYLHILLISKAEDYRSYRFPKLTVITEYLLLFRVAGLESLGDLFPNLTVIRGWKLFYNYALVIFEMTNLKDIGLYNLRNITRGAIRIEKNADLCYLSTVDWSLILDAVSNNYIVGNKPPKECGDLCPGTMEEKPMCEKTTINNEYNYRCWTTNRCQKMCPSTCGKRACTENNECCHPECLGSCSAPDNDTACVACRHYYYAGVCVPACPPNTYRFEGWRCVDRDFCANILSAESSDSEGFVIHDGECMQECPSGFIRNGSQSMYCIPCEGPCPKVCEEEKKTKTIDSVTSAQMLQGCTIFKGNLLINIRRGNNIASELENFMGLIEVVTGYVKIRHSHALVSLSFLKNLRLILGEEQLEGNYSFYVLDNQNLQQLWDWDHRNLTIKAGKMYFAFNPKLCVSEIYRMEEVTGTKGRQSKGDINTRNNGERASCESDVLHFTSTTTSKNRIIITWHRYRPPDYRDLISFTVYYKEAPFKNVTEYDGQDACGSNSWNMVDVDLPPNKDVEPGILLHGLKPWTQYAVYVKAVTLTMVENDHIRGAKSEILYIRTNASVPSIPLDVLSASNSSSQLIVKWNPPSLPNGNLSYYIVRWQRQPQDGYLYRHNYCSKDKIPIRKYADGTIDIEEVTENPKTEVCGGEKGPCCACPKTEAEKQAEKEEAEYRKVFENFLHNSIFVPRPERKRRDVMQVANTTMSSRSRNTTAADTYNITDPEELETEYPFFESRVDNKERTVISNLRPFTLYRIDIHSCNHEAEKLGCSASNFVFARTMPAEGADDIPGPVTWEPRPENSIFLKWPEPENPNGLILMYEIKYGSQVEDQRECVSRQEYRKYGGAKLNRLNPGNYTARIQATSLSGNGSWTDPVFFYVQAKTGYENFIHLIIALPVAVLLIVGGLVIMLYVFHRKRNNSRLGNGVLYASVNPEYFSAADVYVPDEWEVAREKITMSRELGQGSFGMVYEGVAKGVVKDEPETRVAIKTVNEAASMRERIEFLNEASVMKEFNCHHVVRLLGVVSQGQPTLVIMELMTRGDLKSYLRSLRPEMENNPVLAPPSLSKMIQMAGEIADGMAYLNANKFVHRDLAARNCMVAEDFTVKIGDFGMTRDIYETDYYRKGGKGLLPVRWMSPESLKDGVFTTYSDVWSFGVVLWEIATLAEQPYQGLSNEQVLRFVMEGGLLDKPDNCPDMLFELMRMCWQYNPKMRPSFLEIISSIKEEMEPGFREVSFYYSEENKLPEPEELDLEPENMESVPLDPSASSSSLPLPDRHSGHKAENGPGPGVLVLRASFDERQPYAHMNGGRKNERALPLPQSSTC

Row | Structure (SMILES) | IC50 (EGFR^T790M/L858R) | kinase inhibitory activity (in words) (EGFR^T790M/L858R) | IC50 (EGFR^wt) | IC50 [1] | IC50 (IGF-1R) | IC50 [2]
1 | C=CC(=O)Nc1ccc(OC)c(Nc2ncc(Cl)c(Nc3ccc4ccccc4c3)n2)c1 [CCB120027, N-((3-((5-chloro-4-((naphthalen-2-yl)amino))pyrimidin-2-yl)amino)-4-methoxyphenyl)acrylamide] | 2.2 nM | potent | 172 nM | 403 nM | 263 nM | > 10000 nM
2 | C=CC(=O)Nc1cc(CN(C)C)cc(Nc2ncc(Cl)c(Nc3ccc4ccccc4c3)n2)c1 [CCB120081, N-((3-((5-chloro-4-((naphthalen-2-yl)amino))pyrimidin-2-yl)amino)-5-(dimethylaminomethyl)phenyl)acrylamide] | 5.1 nM |  | 170 nM | 16 nM | 85.8 nM | 37 nM
3 | Cc1ccc(NC(=O)/C=C/CN(C)C)cc1Nc1ncc(Cl)c(Nc2ccc3ccccc3c2)n1 [CCB145340] | 28.7 nM |  | 2220 nM | 864 nM | 117 nM | 1610 nM
4 | COc1ccc(NC(=O)/C=C/CN(C)C)cc1Nc1ncc(Cl)c(Sc2ccc3ccccc3c2)n1 [CCB145291, (E)-N-((3-((5-chloro-4-((naphthalen-2-yl)sulfenyl))pyrimidin-2-yl)amino)-4-methoxyphenyl)-4-(dimethylamino)-2-butenamide] | 159 nM |  | ≥ 10000 nM | 2780 nM | 347 nM | 11100 nM
5 | CN(C)C/C=C/C(=O)Nc1ccc(F)c(Nc2ncc(Cl)c(Nc3ccc4ccccc4c3)n2)c1 [CCB145329] | 55.7 nM |  | 1400 nM | 1060 nM | 198 nM | 20500 nM
6 | CCOc1ccc(NC(=O)/C=C/CN(C)C)cc1Nc1ncc(Br)c(Nc2ccc3ccccc3c2)n1 [CCB145374, (E)-N-((3-((5-bromo-4-((naphthalen-2-yl)amino))pyrimidin-2-yl)amino)-4-ethoxyphenyl)-4-(dimethylamino)-2-butenamide] | 11.3 nM |  | 2830 nM | 2820 nM | 86.4 nM | 4470 nM
7 | COc1ccc(NC(=O)/C=C/CN(C)C)cc1Nc1ncc(F)c(Nc2ccc3ccccc3c2)n1 [CCB145287, (E)-N-((3-((5-fluoro-4-((naphthalen-2-yl)amino))pyrimidin-2-yl)amino)-4-methoxyphenyl)-4-(dimethylamino)-2-butenamide] | 32 nM |  | 131 nM | 375 nM | 151 nM | 611 nM
8 | C=CC(=O)Nc1cc(Nc2ncc(Cl)c(Nc3ccc4ccccc4c3)n2)c(OC)cc1N1CCC(N(C)C)C1 (stereo not shown) [CCB120137, N-((5-((5-chloro-4-((naphthalen-2-yl)amino))pyrimidin-2-yl)amino)-2-(3-dimethylaminopyrrolidin-1-yl)-4-methoxyphenyl)acrylamide] | 0.3 nM | potent | 16.8 nM | 167 nM | 56.4 nM | 425 nM
9 | COc1ccc(NC(=O)/C=C/CN2CCCCC2)cc1Nc1ncc(Cl)c(Nc2ccc3ccccc3c2)n1 [CCB120024, (E)-N-((3-((5-chloro-4-((naphthalen-2-yl)amino))pyrimidin-2-yl)amino)-4-methoxyphenyl)-4-(piperidin-1-yl)-2-butenamide] | 1.9 nM | potent | 318 nM | 319 nM | 35.4 nM | 6930 nM
10 | Cc1ccc(Nc2ncc(Br)c(Nc3ccc4ccccc4c3)n2)cc1NC(=O)/C=C/CN(C)C [CCB145348, (E)-N-((5-((5-bromo-4-((naphthalen-2-yl)amino))pyrimidin-2-yl)amino)-2-methylphenyl)-4-(dimethylamino)-2-butenamide] | 42.5 nM |  | 470 nM | 1100 nM | 157 nM | 4660 nM
11 | C=CC(=O)Nc1cc(Nc2ncc(Cl)c(Nc3ccc4ccccc4c3)n2)c(OC)cc1N1CCCN(C)CC1 [CCB120120, N-((5-((5-chloro-4-((naphthalen-2-yl)amino))pyrimidin-2-yl)amino)-2-(4-methylhomopiperazinyl)-4-methoxyphenyl)acrylamide] | 0.6 nM | potent | 31.7 nM | 1 to 16 nM | 18.3 nM | 260 nM
12 | C=CC(=O)Nc1cc(CN2CCCN(C)CC2)cc(Nc2ncc(Cl)c(Nc3ccc4ccccc4c3)n2)c1 [CCB120105, N-((3-((5-chloro-4-((naphthalen-2-yl)amino))pyrimidin-2-yl)amino)-5-((4-methylhomopiperazin-1-yl)methyl)phenyl)acrylamide] | 1.2 nM |  | 137 nM | 151 nM | 77.3 nM | 576 nM
